Structures can show the parent of a compound that is named as a salt.
What follows are compounds tested against T1, Bradykinin receptor (Cavia porcellus, UniProt O70526) (assay: ^3H-Bradykinin receptor binding (crude guinea pig ileum membrane)). Settings: drug 1 x 10^-5M; ^3H-Bradykinin 0.06 nM; crude ileum membrane suspension; room temperature for 60 minutes; 10 µM.
T1 construct: The ileum was removed and homogenized in buffer; from tissue; host or cells: guinea pig ileum, crude membrane suspension
T1 sequence (O70526 1-372): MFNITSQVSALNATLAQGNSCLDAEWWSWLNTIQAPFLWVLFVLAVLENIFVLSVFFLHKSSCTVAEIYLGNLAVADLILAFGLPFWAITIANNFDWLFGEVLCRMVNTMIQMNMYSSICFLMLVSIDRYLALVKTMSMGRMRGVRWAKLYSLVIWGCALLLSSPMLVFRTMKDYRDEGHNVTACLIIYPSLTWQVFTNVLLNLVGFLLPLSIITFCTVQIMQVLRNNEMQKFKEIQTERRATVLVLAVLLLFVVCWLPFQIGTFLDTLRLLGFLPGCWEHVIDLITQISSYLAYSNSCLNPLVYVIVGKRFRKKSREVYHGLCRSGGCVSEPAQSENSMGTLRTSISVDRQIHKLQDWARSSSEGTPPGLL
Set-up: species or system guinea pigs
Protocol: (a) Crude ileum membrane preparation
Male Hartly strain guinea pigs were sacrificed by decapitation. The ileum was removed and homogenized in buffer (50 mM trimethylaminoethanesulfonic acid (TES), 1 mM 1,10-phenanthroline pH 6.8). The homogenate was centrifuged (1000 xg, 20 minutes) to remove tissue clumps and the supernatant was centrifuges (100,000 xg, 60 minutes) to yield a pellet. The pellet was resuspended in buffer (50 mM TES, 1 mM 1,10-phenanthroline, 140 mg/ℓ bacitracin, 1 mM dithiothreiol, 0.1 % bovine serum albumin pH 6.8) and homogenized with a glass-teflon homogenizer to yield suspension which was referred to as crude membrane suspension. The obtained membrane suspension was stored at -80°C until use.
(b) ^3H-Bradykinin binding to the membrane
The frozen crude membrane suspension was thawed. In binding assays, ^3H-Bradykinin (0.06 nM) and drug (1 x 10^-5M) were incubated with 50 µl of the membrane suspension at room temperature for 60 minutes in a final volume of 250 µl. Separation of receptor-bound from free ^3H-Bradykinin is achieved by immediate filtration under vacuum and washed three times with 5 ml of ice-cold buffer (50 mM Tris-HCl pH 7.5). Non-specific binding was defined as binding in the presence of 0.1 µM Bradykinin. The radioactivity retained on rinsed filters was determined by a liquid-scintillation counter.

Row | SMILES | Inhibition % of ^3H-Bradykinin binding (concentration : 1 x 10^-5M) [%]
1 | CCCNC(=O)NCC(=O)N(C)c1ccc(Cl)c(COc2cccn3c(Br)c(C)nc23)c1Cl.Cl [61-(51), 3-Bromo-8-[2,6-dichloro-3-[N-(N'-n-propylureidoacetyl)-N-methylamino]benzyloxy]-2-methylimidazo[1,2-a]pyridine hydrochloride] | 100
2 | Cc1nc2c(OCc3c(Cl)ccc(N(C)C(=O)CNC(=O)Nc4cccnc4)c3Cl)cccn2c1Br.Cl.Cl [61-(54), 3-Bromo-8-[2,6-dichloro-3-[N-[N'-(3-pyridyl)ureidoacetyl]-N-methylamino]benzyloxy]-2-methylimidazo[1,2-a]pyridine dihydrochloride] | 100

Same assay, conditions: drug 1 x 10^-5M; ^3H-Bradykinin 0.06 nM; crude ileum membrane suspension; room temperature for 60 minutes; read-out: Inhibition % of ^3H-Bradykinin binding (concentration : 1 x 10^-5M)

Row | inhibition at 10 µM [%] | SMILES
3 | 95 | CC(=O)N(C)c1ccc(Cl)c(COc2cccn3c(Br)c(C)nc23)c1Cl [61-(1), 3-Bromo-8-[2,6-dichloro-3-(N-acetyl-N-methylamino)benzyloxy]-2-methylimidazo[1,2-a]pyridine hydrochloride]
4 | 100 | Cc1nc2c(OCc3c(Cl)ccc(N(C)C(=O)CNC(=O)[C@H]4CCCN4)c3Cl)cccn2c1Br [Example 49, 3-Bromo-8-[2,6-dichloro-3-[N-(D-prolylglycyl)-N-methylamino]benzyloxy]-2-methylimidazo[1,2-a]pyridine dihydrochloride]
5 | 98 | Cc1nc2c(OCc3c(Cl)ccc(N(C)C(=O)CNC(=O)Cc4ccccc4)c3Cl)cccn2c1Br [61-(13), 3-Bromo-8-[2,6-dichloro-3-[N-(phenylacetylglycyl)-N-methylamino]benzyloxy]-2-methylimidazo[1,2-a]pyridine hydrochloride]
6 | 100 | Cc1nc2c(OCc3c(Cl)ccc([N+](=O)[O-])c3Cl)cccn2c1Br [Example 60, 3-bromo-8-(2,6-dichloro-3-nitrobenzyloxy)-2-methylimidazo[1,2-a]pyridine hydrochloride]
7 | 100 | Cc1nc2c(OCc3c(Cl)ccc(N(C)C(=O)CNC(=O)CN(C)C)c3Cl)cccn2c1Br [61-(41), 3-Bromo-8-[2,6-dichloro-3-[N-[(N,N-dimethylglycyl)glycyl]-N-methylamino]benzyloxy]-2-methylimidazo[1,2-a]pyridine dihydrochloride]
8 | 100 | COCC(=O)NCC(=O)CC(=O)N(C)c1ccc(Cl)c(COc2cccn3c(Br)c(C)nc23)c1Cl [61-(16), 3-Bromo-8-[2,6-dichloro-3-[N-(methoxyacetylglycyl)acetyl-N-methylamino]benzyloxy]-2-methylimidazo[1,2-a]pyridine hydrochloride]
9 | 99 | CCNC(=O)NCC(=O)N(C)c1ccc(Cl)c(COc2cccn3c(Br)c(C)nc23)c1Cl [61-(28), 3-Bromo-8-[2,6-dichloro-3-[N-(N'-ethylureidoacetyl)-N-methylamino]benzyloxy]-2-methylimidazo[1,2-a]pyridine hydrochloride]
10 | 97 | CC(=O)NCC(=O)NCC(=O)N(C)c1ccc(Cl)c(COc2cccn3c(Br)c(C)nc23)c1Cl [61-(18), 8-[3-[N-(Acetylglycylglycyl)-N-methylamino]-2,6-dichlorobenzyloxy]-3-bromo-2-methylimidazo[1,2-a]pyridine hydrochloride]
11 | 100 | CCCC(=O)NCC(=O)N(C)c1ccc(Cl)c(COc2cccn3c(Br)c(C)nc23)c1Cl [61-(7), 3-Bromo-8-[3-[N-(butyrylglycyl)-N-methylamino]-2,6-dichlorobenzyloxy]-2-methylimidazo[1,2-a]pyridine hydrochloride]
12 | 98 | Cc1nc2c(OCc3c(Cl)ccc(N(C)C(=O)CNC(=O)c4ccccc4)c3Cl)cccn2c1Br [61-(11), 8-[3-[N-(Benzoylglycyl)-N-methylamino]-2,6-dichlorobenzyloxy]-3-bromo-2-methylimidazo[1,2-a]pyridine hydrochloride]
13 | 99 | CC(=O)NCC(=O)N(C)c1ccc(Cl)c(COc2cccn3c(Br)c(C)nc23)c1Cl [61-(5), 8-[3-[N-(Acetylglycyl)-N-methylamino]-2,6-dichlorobenzyloxy]-3-bromo-2-methylimidazo[1,2-a]pyridine hydrochloride]
14 | 100 | Cc1nc2c(OCc3c(Cl)ccc(N(C)C(=O)CNC(C)C)c3Cl)cccn2c1Br [61-(23), 3-Bromo-8-[2,6-dichloro-3-[N-(isopropylglycyl)-N-methylamino]benzyloxy]-2-methylimidazo[1,2-a]pyridine dihydrochloride]
15 | 100 | Cc1nc2c(OCc3c(Cl)ccc(N(C)C(=O)CNC(=S)Nc4ccccc4)c3Cl)cccn2c1Cl [Example 47, 3-Chloro-8-[2,6-dichloro-3-[N-(N'-phenylthioureidoacetyl)-N-methylamino]benzyloxy]-2-methylimidazo[1,2-a]pyridine]

Same assay, conditions: read-out: Inhibition % of ^3H-Bradykinin binding (concentration : 1 x 10^-5M)

Row | SMILES | inhibition at 10 µM [%]
16 | Cc1nc2c(OCc3c(Cl)ccc(N(C)C(=O)CNC(=O)Oc4ccc([N+](=O)[O-])cc4)c3Cl)cccn2c1Br [40-(21), 3-Bromo-8-[2,6-dichloro-3-[N-(4-nitrophenoxycarbonylglycyl)-N-methylamino]benzyloxy]-2-methylimidazo[1,2-a]pyridine] | 97
